Counter-ions that a name gives are not always drawn.
How the values were obtained:
[1] = test system: haloperidol-induced catalepsy in mice; test: Reversal of haloperidol-induced catalepsy in mice; type: in vivo, mouse; settings: for Score + SE: haloperidol 6 mg/kg s.c., max score 12; for % of control: score vs saline control
Protocol: All drugs were administered i.p. in a volume of 0.2 mL. Two hours later, haloperidol was injected s.c. at a dose of 6 mg/kg in a volume of 0.1-0.2 mL. Motor coordination tests were made at 3 hours after giving haloperidol, that is, 5 hours after administering the presumed protective drugs.
Motor coordination tests and rigidity were quantified according to three different parameters: (a) ability to walk the length of a horizontal rod, 80 cm-long; (b) ability to climb down, face down, a vertical rod, 80 cm-long; (c) duration of immobility in an unnatural sitting posture whereby the abdomen of the mouse is pressed against a “wall.” Full performance as in haloperidol-untreated mice is given the score of 4 in each test, or a total of 12 in all tests. Poor performance is given a score from 1 to 3.

[2] = test system: α-MpT-induced hypokinesia in rats; test: Reversal of α-MpT-induced hypokinesia in rats; type: in vivo, rat; settings: for Score + SE (total motor activity, 10 hours): α-MpT 100 mg/kg i.p.
Protocol: The drug α-MpT is assumed to inhibit the formation of L-DOPA from tyrosine, and consequently the formation of dopamine itself. Lack of CNS dopamine is expressed as hypoactivity. […] Two hours later they received i.p. α-MpT at a dose of 100 mg/kg in 0.3-0.5 mL. Controls received saline. Following this, motor activity was recorded in a computerized activity cage for the duration of 10 hours.

[3] = test system: cardiovascular effects in animals; settings: Finberg et al.; cited from earlier work
[4] = test system: neonatal rat cerebellum cell cultures; settings: 0.01 μM + NMDA
Protocol: Procedures: cultures of mechanically dissociated neonatal rat cerebellum. […] The cerebella are then dissociated after 20-25 passages through a sterile 13 gauge, 10 cm long stainless steel needle attached to a 5 ml syringe with an inserted 45 μm pore size nylon sieve. The dissociated cells are centrifuged at 200 g for 5 minutes, the supernatant discarded and the cells resuspended in enriched medium. The cell viability is determined by the trypan blue exclusion test. […] After 4 days in culture, the media are replaced with media containing the desired test compounds. Experiments are done in duplicate and repeated 2 or 3 times. […] Nerve cell survival is evaluated by phase contrast microscopy and trypan blue staining after 24 h.
Values, expressed as the percent of untreated controls, represent the average of 2 experiments run in duplicate for culture experiments, and the mean±SEM of 4 animals for ischemia. The percent protection value is the effect of the test compound after subtraction of the solvent effect.

[5] = Appearance of PAI salts under destructive conditions; type: physicochemical
Protocol: Comparative stability studies were carried out under sets of several accelerating conditions: I) heating at 80° C. for 72, 96 or 144 hours; and II) reflux in isopropanol for 30 hours. The degradation products developed were measured by HPLC and confirmed by TLC. The results are presented in Table 9 with the relative retention time (relative to the PAI peak; RRT) as an area percentage relative to ? integrated peak area.
The salts were submitted to visual inspection of color an form.

[6] = Physicochemical properties of PAI salts; settings: for pH: 1% aqueous solution of the PAI salt
Protocol: The melting range was measured with an automatic apparatus (Mettler FP 80) and thermo-gravimetric analysis was performed on a Mettler TA 3000 system at a rate of 10° C./min in the applicable range. […] The pH was measured in a 1% aqueous solution of the PAI salts.

## C#CCNC1CCc2ccccc21 (racemic) [Rac PAI Mesylate]
[1]; 3.0 mg/kg i.p. (free base)
  Score + SE: 5.9 ± 0.7
[1]; 3.0 mg/kg i.p.
  % of control: 49%
[1]; 5 mg/kg
  protection against haloperidol (in words): not active
[1]; 5.0 mg/kg i.p. (free base)
  Score + SE: 6.4 ± 0.4
[1]; 5.0 mg/kg i.p.
  % of control: 53%
[1]; 10 mg/kg i.p. (free base)
  Score + SE: 9.2 ± 0.6
[1]; 10 mg/kg i.p.
  % of control: 77%
[1]; 15 mg/kg i.p. (free base)
  Score + SE: 8.8 ± 0.8
[1]; 15 mg/kg i.p.
  % of control: 73%
[2]; 2 mg/kg
  restoration of motor activity (in words): not active
[2]; 2 mg/kg i.p., vs saline control
  % of control: 57%
[2]; 2 mg/kg i.p.
  Score + SE (total motor activity, 10 hours): 9,035 ± 829
[2]; 5 mg/kg i.p.
  Score + SE (total motor activity, 10 hours): 10,926 ± 820
[2]; […] i.p.
  Score + SE (total motor activity, 10 hours): 9,698 ± 557

## C#CCNC1CCc2ccccc21.Cl (racemic) [racemic PAI.HCl, Racemic N-propargyl-1-aminoindan hydrochloride]
[3]
  potentiation of the cardiovascular effects of tyramine: does not potentiate

## NCCCNCCCCNCCCN [Spermine, reference compound]
[4]
  Surviving Cells (percent of untreated controls): 75
[4]; after subtraction of solvent effect
  Percent Protection: 65

## Cl [chloride]
[5]; 80° C./72 h
  appearance: color: white
  appearance: form: powder
[5]; 80° C./144 h
  appearance: color: white
  appearance: form: powder
[5]; reflux in iPrOH/30 h
  appearance: color: off white
  appearance: form: powder

## C#CCN[C@@H]1CCc2ccccc21.CCS(=O)(=O)O [esylate]
[6]
  pH: 2.4
[5]; 80° C./72 h
  appearance: color: brownish
  appearance: form: melted
[5]; 80° C./144 h
  appearance: color: dark brown
  appearance: form: melted
[5]; reflux in iPrOH/30 h
  appearance: color: dark brown
  appearance: form: melted

## C#CCN[C@@H]1CCc2ccccc21.C#CCN[C@@H]1CCc2ccccc21.O=S(=O)(O)O [sulphate]
[6]
  pH: 3.9
[6]; thermo-gravimetric analysis, 10° C./min
  % Wt. loss: 3.2%
[5]; 80° C./72 h
  appearance: color: off white
  appearance: form: powder
[5]; 80° C./144 h
  appearance: color: off white
  appearance: form: powder
[5]; reflux in iPrOH/30 h
  appearance: color: brown
  appearance: form: powder

## maleate
[5]; 80° C./72 h
  appearance: color: brown
  appearance: form: melted
[5]; 80° C./96 h
  appearance: color: brown
[5]; reflux in iPrOH/30 h
  appearance: color: brown
  appearance: form: melted

## phosphate
[6]
  pH: 7.0
[5]; 80° C./72 h
  appearance: color: brownish
  appearance: form: powder
[5]; 80° C./144 h
  appearance: color: brown
  appearance: form: powder
[5]; reflux in iPrOH/30 h
  appearance: color: brown
  appearance: form: powder
